# Paper PMC12080345 (Journal of medicinal chemistry, 2023)
# Test: Acute toxicity assay in mice
# Assay type: in vivo
# Conditions: 200 mg/kg
smiles,measurement,value
"COc1cc(Cn2ccc3cc(C(=O)NCC45C[C@H]6C[C@@H](C4)C[C@@H](C5)C6)ccc32)ccc1C(=O)NO [4e, N-(((3r,5r,7r)-Adamantan-1-yl)methyl)-1-(4-(hydroxycarbamoyl)-3-methoxybenzyl)-1H-indole-5-carboxamide]",adverse effect,no observed adverse effect
